According to PubChem BioAssay (NCI):
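Tested at 5 concentrations; 48 h exposure; 96-well plates; endpoints linearly interpolated, else capped at highest concentration. GI50: concentration for 50% inhibition of growth. TGI is the concentration that stops growth completely.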

System: RXF-631 renal
Assay: inhibition of tumour cell growth, NCI panel, 48 h

CCC[CH2][Sn]([CH2]CCC)([O]C(=O)C(N)CSC)[O]C(=O)C(N)CSC (stereo unspecified)
GI50: 3.16 µM | TGI: 17.3 µM

O=c1ccnc2c1ccc1[nH]cccc12
TGI: > 100 µM

Cc1ccc(/C=C/C(=O)c2sc(-c3cccnc3)nc2C)cc1
TGI: > 100 µM

NC(=S)N/N=C(\C(=O)Nc1cccc([N+](=O)[O-])c1)c1nc2ccc([N+](=O)[O-])cc2[nH]c1=O
TGI: > 100 µM

Nc1ncn(C2C=C(CO)C(O)C2O)c(=O)n1 (stereo unspecified)
TGI: > 100 µM

CCCCCCCCCCC(O)C1CCC(C(O)CCC(O)C2CCC(CCCCCCC[C@H](O)CC3=C[C@@H](C)OC3=O)O2)O1 (stereo partly specified)
TGI: > 100 µM

CCc1nc(N)nc(C(=O)NCCNC(=O)c2nc(N)nc(CC)c2C)c1C
TGI: > 100 µM

CSc1nc(NC(=O)O)c(N(C(C)=O)C(=O)O)c(=O)n1C
TGI: > 100 µM

CCn1c(O)c(C=N)c(=O)n(CC)c1=O
TGI: > 100 µM

O=C1NC2CCC(C2)C1c1ccccc1 (stereo unspecified)
TGI: > 100 µM

CC(=O)N/C(=C\c1cccc([N+](=O)[O-])c1)c1nc2c3c(ccc2[nH]1)C(=O)c1ccccc1C3=O
TGI: > 100 µM

COC(=O)C12C3C4C5C3(C#N)C1C5(C(=O)OC)C42C(=O)N(C(C)C)C(C)C (stereo unspecified)
TGI: > 100 µM

O=c1[nH]c2c3ccccc3ccc2c2cc3c(cc12)OCO3
TGI: > 100 µM

CCCCc1ccc(-n2c3nc(=O)n(C)c(=O)c-3nc3ccccc32)cc1
TGI: 35.3 µM

COc1ccc2cc3[n+](cc2c1OC)CCc1cc(O)c(O)cc1-3
TGI: > 100 µM
